# Where two headings read alike, the source gives them in different places.
# How the values were obtained:
# heparanase = target: T1, heparanase (Homo sapiens, UniProt Q9Y251); assay: AGA*IA assay: heparanase-catalyzed fondaparinux cleavage, colorimetric (WST-1); assay type: biochemical
# T1 construct: 100 µM fondaparinux, 2.5 nM heparanase and serial dilutions of test compounds
# T1 sequence (Q9Y251 158-543 limits assumed): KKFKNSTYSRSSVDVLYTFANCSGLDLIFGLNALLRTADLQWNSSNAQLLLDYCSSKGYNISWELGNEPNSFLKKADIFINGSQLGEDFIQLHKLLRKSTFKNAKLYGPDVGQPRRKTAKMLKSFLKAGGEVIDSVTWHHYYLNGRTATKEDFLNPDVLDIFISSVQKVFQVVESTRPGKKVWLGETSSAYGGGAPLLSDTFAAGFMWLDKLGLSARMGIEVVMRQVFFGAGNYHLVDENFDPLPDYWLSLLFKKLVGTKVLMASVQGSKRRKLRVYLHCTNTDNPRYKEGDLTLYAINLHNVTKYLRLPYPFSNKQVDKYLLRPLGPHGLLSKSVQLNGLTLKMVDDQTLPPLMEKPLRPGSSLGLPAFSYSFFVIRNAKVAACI
# T1 sequence (Q9Y251 36-109 limits assumed): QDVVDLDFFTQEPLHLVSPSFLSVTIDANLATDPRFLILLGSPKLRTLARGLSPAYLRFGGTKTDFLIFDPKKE
# Protocol: All compounds were tested in a simple, accurate and robust microplate assay based on the cleavage of the synthetic heparin fragment, the pentasaccharide Fondaparinux (AGA*IA). This assay was originally developed by Hammond and coworkers [Hammond E, Li CP, Ferro V. Development of a colorimetric assay for heparanase activity suitable for kinetic analysis and inhibitor screening. […] Fondaparinux is cleaved by heparanase to generate a reducing disaccharide, which can be quantitatively measured via a colorimetric or a fluorescence assay, the last by the fluorescent sensor polymer-H [Schiemann S, Lühn S, Alban S. Development of both colorimetric and fluorescence heparinase activity assays using fondaparinux as substrate.
# The assay measures the appearance of the disaccharide product of heparanase-catalyzed fondaparinux cleavage colorimetrically using the tetrazolium salt WST-1. Assay was essentially performed as described with minor modifications. Briefly, NUNC ELISA 96-well plates were pre-treated with a solution of 4% BSA (bovin serum albumin) in phosphate-buffered saline containing 0.05% Tween 20 (PBST), for 2 h at 37°C, then washed three times with PBST, dried by tapping on paper towel and stored at -20°C. Before use, once again, the plates were washed with PBST.
# Then, the absorbance at 560 nm was measured through a microplate reader (Victor 3, Perkin Elmer).
# Finally, the measurements were corrected by subtracting both the reagent background and the inner absorbance value of test compound.
# [1] = test system: U2OS (human osteosarcoma); assay: SRB Cell Cytotoxicity Assay; assay type: cell-based; conditions: treated for 72h, read-out: Concentration of test compounds at which the cell growth is inhibited by 50 % U2OS
# Excerpt: (§1) SRB Cell Cytotoxicity Assay is an assay based upon the quantitative staining of cellular proteins by sulforhodamine B (SRB). This assay can be used for high-throughput drug screening (Vichai & Kirkitara, Nature Protocol. 2006, 1, 112). Sulforhodamine B is an anionic aminoxanthene dye that forms an electrostatic complex with the basic amino acid residues of proteins under moderately acid conditions, which provides a sensitive linear response.
# (§2) To assess a putative antiproliferative activity of the selected compounds, HT1080 (human fibrosarcoma), U87MG (human glioblastoma astrocytoma) and U2OS (human osteosarcoma) cell lines were treated for 72h, in triplicate, with increasing concentrations of heparanase inhibitors. Inhibition of cell proliferation was then measured by the classical colorimetric SRB Cell Cytotoxicity assay. Absorbance was measured by spectrophotometer at a wavelength of 510 nm and cell proliferation was determined as percent with respect to control cells (cells treated with the vehicle alone). EC50 values were then determined by GraphPad Prism.
# [2] = test system: HT1080 (human fibrosarcoma); assay: SRB Cell Cytotoxicity Assay; assay type: cell-based; conditions: HT-1080, HT1080, treated for 72h, read-out: Concentration of test compounds at which the cell growth is inhibited by 50 % HT1080
# Excerpt: as §1, §2
# [3] = test system: U87MG (human glioblastoma astrocytoma); assay: SRB Cell Cytotoxicity Assay; assay type: cell-based; conditions: U-87 MG, treated for 72h, read-out: Concentration of test compounds at which the cell growth is inhibited by 50 % U87MG
# Excerpt: as §1, §2
# [4] = test system: HT1080 (human fibrosarcoma); assay: Matrigel cell invasion assay; assay type: cell-based
# Protocol: Heparanase inhibitors were then evaluated for their activity on the invasive potential of HT1080 (human fibrosarcoma) human cell lines, using the Matrigel cell invasion assay which allows to assess the cell invasion ability of malignant and normal cells.
# Invasion assay was performed using BioCoat cell culture inserts (BioCoat 8.0µm PET Membrane 24 Well Permeable Supports, Corning). Filters were coated with 100 µl of 300 µg/ml Matrigel dissolved in coating buffer (0.01M Tris pH 8.0, 0.7% NaCl) (Becton-Dickinson Sciences). DMEM (Dulbecco's Modified Eagle's Medium) containing 5% FBS was added to the lower chambers. Cells were pre-treated with heparanase inhibitors for 24 h, detached and added to the upper chambers in media containing the inhibitors. Cells were allowed to invade for 24 h at 37°C in a CO2 incubator and then unmigrated cells were removed from the upper chamber with a cotton swab. The invading cells were fixed, stained with 0.1% crystal violet for 10 min at room temperature, photographed and counted under inverted microscope.
# Test compounds were analyzed at fixed concentration for several fields, in duplicates. Activity of test compounds was compared to the reference compound. Activity of most interesting compound was confirmed in a second cell invasion assay. Data were expressed as the percent invasion with respect to cell migration through uncoated insert membrane. (Table 5)
# U87MG [5] = assay: Cell adhesion assay on matrigel coated wells; assay type: cell-based, human; conditions: percent of adhesion with respect to the control (100%)
# U87MG [6] = assay: Matrigel cell invasion assay; assay type: cell-based, human; set-up: key to Invasion Assay Inhibition (%) U87MG: +++: > 90%; ++: 50-90 %; +: < 50%; -: Not active
# U2OS = assay: Matrigel cell invasion assay; assay type: cell-based, human; set-up: key to Invasion Assay Inhibition (%) U2OS: +++: > 90%; ++: 50-90 %; +: < 50%; -: Not active
# [7] = test system: HT1080 (human fibrosarcoma); assay: Cell adhesion assay on matrigel coated wells; assay type: cell-based; conditions: percent of adhesion with respect to the control (100%)
# Protocol: Cell surface, non-integrin molecules such as heparan sulfate proteoglycans (HSPGs) may be involved in the regulation of early adhesive stages of cell-ECM interactions. A cell adhesion assay has been employed to determine if the newly designed heparanase inhibitors were able to interfere with adhesion properties of cancer cells.
# HT1080 (human fibrosarcoma) cells were treated for 18-20 h with test compounds in complete medium supplemented with 10% FCS. Then cells were collected, washed in complete medium, and added to matrigel coated wells in triplicate, at previously identified optimal seeding density, and incubated at 37 °C in complete medium for times ranging from 15 minutes to 4h, according to the cell line. After incubation, the wells were washed three times with serum-free medium and the remaining firmly attached cells were stained with crystal-violet 0.1%. Optical density was measured at 560 nm by Victor 3 (Perkin-Elmer) plate analyzer. Each experiment was repeated three times.
# [8] = 2.5 nM heparanase, 100 µM fondaparinux, pH 5.0, 3 h at 37°C, class symbols, read-out: AGAIA assay (IC50)
Structure (SMILES),IC50 (heparanase; [8]),EC50 [1],EC50 [2],EC50 [3],further results
O=C(Nc1ccc2c(O)c(N=Nc3ccc(N=Nc4ccc(S(=O)(=O)O)cc4)cc3S(=O)(=O)O)c(S(=O)(=O)O)cc2c1)Nc1ccc2c(O)c(N=Nc3ccc(N=Nc4ccc(S(=O)(=O)O)cc4)cc3S(=O)(=O)O)c(S(=O)(=O)O)cc2c1 [SST0595],,> 10 µM,> 10 µM,> 10 µM,"IC50 (heparanase; read-out: AGAIA assay (IC50), 2.5 nM heparanase, 100 µM fondaparinux, pH 5.0, 3 h at 37°C, class symbols): 0.5 to 0.99 µM"
"O=C(Nc1cccc(-c2nc3ccccc3[nH]2)c1)c1ccc(Oc2ccc(C(=O)Nc3cccc(-c4nc5ccccc5[nH]4)c3)cc2)cc1 [SST0656, N-[3-(1H-benzimidazol-2-yl)phenyl]-4-[4-[[3-(1H-benzimidazol-2-yl)phenyl]carbamoyl]phenoxy]benzamide]",0.05 to 0.49 µM,> 2.5 µM,> 2.5 µM,> 2.5 µM,"inhibition at 2.5 µM ([4]; HT-1080, HT1080, Conc. 2.5 µM): < 50%; Adhesion Assay (%) U87MG (U87MG [5]; Conc. 2.5 µM): ∼ 97%; inhibition at 2.5 µM (U87MG [6]; Homo sapiens, U-87 MG, Conc. 2.5 µM): < 50%; inhibition at 2.5 µM (U2OS; Homo sapiens, Conc. 2.5 µM): < 50%; Adhesion Assay (%) HT1080 ([7]; HT1080, Conc. 2.5 µM): ∼ 87%"
"O=C(O)/C=C/C(=O)Nc1ccc(Sc2ccc(Oc3ccc(Sc4ccc(NC(=O)/C=C/C(=O)O)cc4)cc3)cc2)cc1 [SST0806, (E)-4-[4-[4-[4-[4-[[(E)-3-carboxyprop-2-enoyl]amino]phenyl]sulfanylphenoxy]phenyl]sulfanylanilino]-4-oxobut-2-enoic acid]",0.5 to 0.99 µM,> 2.5 µM,> 2.5 µM,> 2.5 µM,
O=C(Nc1ccc(Oc2ccc(NC(=O)c3ccc4c(c3)C(=O)N(c3nccs3)C4=O)cc2)cc1)c1ccc2c(c1)C(=O)N(c1nccs1)C2=O [SST0816],1 to 10 µM,,,,
O=C(Nc1ccc(O)cc1C(=O)O)c1ccc(S(=O)(=O)c2ccc(C(=O)Nc3ccc(O)cc3C(=O)O)cc2)cc1 [SST0817],,,,,IC50 (heparanase): 0.5 to 0.99 µM
"CC(C)(c1ccc(Oc2ccc3c(c2)C(=O)N(c2cccc(C(=O)O)c2)C3=O)cc1)c1ccc(Oc2ccc3c(c2)C(=O)N(c2cccc(C(=O)O)c2)C3=O)cc1 [SST0851, 3-[5-[4-[2-[4-[2-(3-carboxyphenyl)-1,3-dioxoisoindol-5-yl]oxyphenyl]propan-2-yl]phenoxy]-1,3-dioxoisoindol-2-yl]benzoic acid]",0.5 to 0.99 µM,> 2.5 µM,> 2.5 µM,> 2.5 µM,
"Cc1ccc(C(=O)Nc2ccc(S(=O)(=O)O)c3cc(S(=O)(=O)O)cc(S(=O)(=O)O)c23)cc1NC(=O)c1cccc(NC(=O)Nc2cccc(C(=O)Nc3cc(C(=O)Nc4ccc(S(=O)(=O)O)c5cc(S(=O)(=O)O)cc(S(=O)(=O)O)c45)ccc3C)c2)c1 [Suramin, reference compound]",,> 10 µM,> 10 µM,> 10 µM,"inhibition at 10 µM ([4]; HT-1080, HT1080, Conc. 10 µM): < 50%; Adhesion Assay (%) U87MG (U87MG [5]; Conc. 10 µM): ∼ 73%; Invasion Assay Inhibition (%) U87MG (U87MG [6]; Conc. 10 µM): -; Invasion Assay Inhibition (%) U2OS (U2OS; Conc. 10 µM): -; Adhesion Assay (%) HT1080 ([7]; HT1080, Conc. 10 µM): ∼ 100%"

# More lines, main results first:
IC50 (heparanase; [8]),Structure (SMILES),EC50 [1],EC50 [2],EC50 [3],further results
1 to 10 µM,"CC(C)(c1ccc(Oc2ccc3c(c2)C(=O)N(c2ccc(C(=O)O)cc2)C3=O)cc1)c1ccc(Oc2ccc3c(c2)C(=O)N(c2ccc(C(=O)O)cc2)C3=O)cc1 [SST0852, 4-[5-[4-[2-[4-[2-(4-carboxyphenyl)-1,3-dioxoisoindol-5-yl]oxyphenyl]propan-2-yl]phenoxy]-1,3-dioxoisoindol-2-yl]benzoic acid]",,,,
0.5 to 0.99 µM,"O=C(O)c1ccc(Oc2cccc(N3C(=O)c4ccc(Oc5ccc6c(c5)C(=O)N(c5cccc(Oc7ccc(C(=O)O)c(C(=O)O)c7)c5)C6=O)cc4C3=O)c2)cc1C(=O)O [SST0853, 4-[3-[5-[2-[3-(3,4-dicarboxyphenoxy)phenyl]-1,3-dioxoisoindol-5-yl]oxy-1,3-dioxoisoindol-2-yl]phenoxy]phthalic acid]",> 2.5 µM,> 2.5 µM,> 2.5 µM,
1 to 10 µM,"O=C(O)c1ccccc1N1C(=O)c2ccc(Oc3ccc(Oc4ccc5c(c4)C(=O)N(c4ccccc4C(=O)O)C5=O)cc3)cc2C1=O [SST0855, Benzoic acid, 2,2'-[1,4-phenylenebis[oxy(1,3-dihydro-1,3-dioxo-2H-isoindole-5,2-diyl)]]bis-]",,,,
1 to 10 µM,O=C(O)c1ccc2c(c1)C(=O)N(c1cccc(Oc3cccc(Oc4cccc(N5C(=O)c6ccc(C(=O)O)cc6C5=O)c4)c3)c1)C2=O [SST0857],,,,
1 to 10 µM,"O=C(O)c1ccc(N2C(=O)c3ccc(Oc4cccc(Oc5ccc6c(c5)C(=O)N(c5ccc(C(=O)O)cc5)C6=O)c4)cc3C2=O)cc1 [SST0860, Benzoic acid, 4,4'-[1,3-phenylenebis[oxy(1,3-dihydro-1,3-dioxo-2H-isoindole-5,2-diyl)]]bis-]",,,,
